Results on six molecules are retold here after patent US4670431A, “Beta-lactam antibacterial agents” (Beecham Group p.l.c., priority 1983, dated 1987).

Converted amounts (≈) assume the structure as drawn. Counter-ions that a name gives are not always drawn.

In one test the test system is P. mirabilis 889. As to the kind of experiment: MIC against P. mirabilis 889. The class given is cell-based, Proteus mirabilis.
Settings: not given
From the text: The antibiotic compounds of the present invention are active against a wide range of gram negative and gram positive organisms including E. coli such as, for example ESS, JT4, JT425 and NCTC 10418; Pseudomonas Spp. such Ps.aeruginosa for example 10662 and Dalgleish; Serratia marcescens US32; Klebsiella aerogenes A; Enterobacter cloacae N1; P.mirabilis such as, for example C977 and 889; P.morganii, P.rettgeri; B.subtilis; Staph aureus such as, for example Oxford and Russell; N.catarrhalis 1502; Strep faecalis I; β-Haemolytic Strep CN10. The MIC data included in the following examples is representative of the activity of the compounds of the present invention.
Consider `CCN1CCN(C(=O)N[C@@H](C(=O)N[C@]2(NC=O)C(=O)N3C(C(=O)O)=C(COC(C)=O)C[S+]([O-])[C@@H]32)c2ccc(OC(C)=O)c(OC(C)=O)c2)C(=O)C1=O` (single isomer, unassigned) [Example 1 Isomer B, Sodium 7β-[D-2-[(4-ethyl-2,3-dioxopiperazin-1-yl)carbonylamino]-2-(3,4-diacetoxyphenyl)acetamido]-7α-formamidocephalosporanate-1-oxide], for which the “MIC against P. mirabilis 889” value was less than 0.06 µg/mL.

The test is the same for the next values; noted with them: Proteus mirabilis, 889.
As to `CCN1CCN(C(=O)N[C@@H](C(=O)N[C@]2(NC=O)C(=O)N3C(C(=O)O)=C(CSc4nnnn4CC(=O)O)C[S@+]([O-])[C@@H]32)c2ccc(OC(C)=O)c(OC(C)=O)c2)C(=O)C1=O` (single isomer, unassigned) [Example 15 Isomer A, 3-[(1-Carboxymethyl-1H-tetrazol-5-yl)thiomethyl]-7β-[D-2(3,4-diacetoxyphenyl)-2-[(4-ethyl-2,3-dioxopiperazin-1-yl)carbonylamino]acetamido]-7α-formamidoceph-3-em-4-carboxylic acid-1-oxide, disodium salt], the MIC came to 0.5 µg/mL. In the case of `CCN1CCN(C(=O)N[C@@H](C(=O)N[C@]2(NC=O)C(=O)N3C(C(=O)[O-])=C(C[n+]4ccccc4)CS[C@@H]32)c2ccccc2)C(=O)C1=O` [Example 7(c), 7β-[D-2-[(4-Ethyl-2.3-dioxopiperazin-1-yl)carbonylamino]-2-phenylacetamido]-7α-formamido-3-pyridiniummethyl-ceph-3-em-4-carboxylate], it took 0.5 µg/mL (≈ 0.787 µM) to inhibit growth (MIC). With `CC(=O)OCC1=C(C(=O)O)N2C(=O)[C@@](NC=O)(NC(=O)Cc3cccs3)[C@H]2[S@@+]([O-])C1` [Example 27(b), Sodium 7α-Formamido-7β-thien-2-ylacetamidocephalosporanate-1β-oxide], the MIC was 8 µg/mL. `CCN1CCN(C(=O)N[C@@H](C(=O)N[C@]2(NC=O)C(=O)N3C(C(=O)O)=C(CSc4nnnn4C)C[S@+]([O-])[C@@H]32)c2ccccc2)C(=O)C1=O` [Example 8(e), Sodium 7β-[D-2-[(4-Ethyl-2,3-dioxopiperazin-1-yl)carbonylamino]-2-phenylacetamido]-7α-formamido-3-[(1-methyl-1H-tetrazol-5-yl)thiomethyl]ceph-3-em-4-carboxylate-1β-oxide] had a minimal inhibitory concentration (MIC) of 0.5 µg/mL.

`CCN1CCN(C(=O)N[C@@H](C(=O)N[C@]2(NC=O)C(=O)N3C(C(=O)O)=C(CSc4nnnn4CC(=O)O)C[S@@+]([O-])[C@@H]32)c2ccc(OC(C)=O)c(OC(C)=O)c2)C(=O)C1=O` (single isomer, unassigned) [Example 15 Isomer B, 3-[(1-Carboxymethyl-1H-tetrazol-5-yl)thiomethyl]-7β-[D-2(3,4-diacetoxyphenyl)-2-[(4-ethyl-2,3-dioxopiperazin-1-yl)carbonylamino]acetamido]-7α-formamidoceph-3-em-4-carboxylic acid-1-oxide, disodium salt] had an MIC of 0.25 µg/mL.
